One assay concerns the target T1, Protein Mdm4 (Homo sapiens, UniProt O15151).
T1 sequence (O15151 whole entry): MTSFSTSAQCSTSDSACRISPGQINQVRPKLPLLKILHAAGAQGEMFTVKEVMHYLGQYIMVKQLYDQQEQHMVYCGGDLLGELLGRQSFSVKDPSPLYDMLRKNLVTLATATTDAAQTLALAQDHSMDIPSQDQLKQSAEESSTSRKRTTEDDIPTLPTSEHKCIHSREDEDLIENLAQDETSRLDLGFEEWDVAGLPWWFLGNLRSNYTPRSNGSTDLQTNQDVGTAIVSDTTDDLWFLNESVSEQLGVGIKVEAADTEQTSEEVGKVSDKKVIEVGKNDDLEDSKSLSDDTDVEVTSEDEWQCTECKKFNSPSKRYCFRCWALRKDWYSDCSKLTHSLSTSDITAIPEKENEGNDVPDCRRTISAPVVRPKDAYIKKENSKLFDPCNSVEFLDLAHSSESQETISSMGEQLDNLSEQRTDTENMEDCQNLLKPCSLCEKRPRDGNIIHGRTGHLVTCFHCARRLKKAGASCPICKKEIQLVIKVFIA
Nature of the assay: Inhibition of human MDM4 (1 to 116 residues) incubated for 1 hrs by fluorescence polarization assay. Background: In fluorescence polarisation assays a small probe gives low polarisation when free and higher when bound to something large.

Assay [1] has as its target T2, E3 ubiquitin-protein ligase Mdm2 (Homo sapiens, UniProt Q00987). Nature of the assay: Inhibition of human MDM2 incubated for 1 hrs by TR-FRET assay. (Time-resolved FRET reads energy transfer from a long-lived donor to a nearby acceptor.)
The next assay relates to RS4-11. Description: Anticancer activity against human RS4-11 cells assessed as cell viability incubated for 3 days by CellTiterGlo assay. The format is functional, cell-based. As to conditions: RS4-11, 72 h. For orientation: ATP-based viability assays read luminescence as a measure of living cells.
Assay [2] concerns the target Tumour suppressor p53/oncoprotein Mdm2 (Homo sapiens, UniProt Q00987). Description: Inhibition of human MDM2 to p53 (unknown origin) protein protein interaction. The format is protein assay.
Assay [3] addresses T2, E3 ubiquitin-protein ligase Mdm2. Description: Displacement of FAM labeled p53 fragment from human MDM2 (1 to 116 residues) incubated for 1 hrs by fluorescence polarization assay.
Assay [4] is described as follows: Displacement of FAM labeled PMI from human MDM2 (1 to 114 residues) by fluorescence polarization assay.

T2 sequence (Q00987 whole entry): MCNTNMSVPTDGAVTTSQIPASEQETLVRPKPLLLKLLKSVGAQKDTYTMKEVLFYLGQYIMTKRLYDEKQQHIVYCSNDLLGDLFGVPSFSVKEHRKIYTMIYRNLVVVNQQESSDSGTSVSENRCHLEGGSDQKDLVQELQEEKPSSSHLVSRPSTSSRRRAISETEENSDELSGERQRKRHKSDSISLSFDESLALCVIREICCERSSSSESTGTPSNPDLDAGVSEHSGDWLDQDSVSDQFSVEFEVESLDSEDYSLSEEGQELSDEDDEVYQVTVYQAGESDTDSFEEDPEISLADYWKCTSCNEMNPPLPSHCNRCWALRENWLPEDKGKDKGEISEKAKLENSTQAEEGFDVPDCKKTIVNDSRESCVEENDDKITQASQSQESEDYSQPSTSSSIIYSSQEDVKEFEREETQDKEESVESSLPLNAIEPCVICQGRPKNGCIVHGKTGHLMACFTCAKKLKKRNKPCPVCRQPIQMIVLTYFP
Chain of Tumour suppressor p53/oncoprotein Mdm2 (P04637 whole entry, the tested form may be a part): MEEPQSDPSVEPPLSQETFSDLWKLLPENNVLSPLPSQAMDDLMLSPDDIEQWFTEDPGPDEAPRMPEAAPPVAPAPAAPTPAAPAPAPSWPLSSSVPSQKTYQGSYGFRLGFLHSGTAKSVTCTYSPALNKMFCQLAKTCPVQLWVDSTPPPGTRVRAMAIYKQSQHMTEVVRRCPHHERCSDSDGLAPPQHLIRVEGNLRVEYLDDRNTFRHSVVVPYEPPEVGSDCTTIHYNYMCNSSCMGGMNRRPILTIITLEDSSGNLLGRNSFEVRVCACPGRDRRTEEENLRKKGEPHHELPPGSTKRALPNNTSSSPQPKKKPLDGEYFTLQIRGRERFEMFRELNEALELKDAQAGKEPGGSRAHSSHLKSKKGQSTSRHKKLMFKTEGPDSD
Chain of Tumour suppressor p53/oncoprotein Mdm2 (Q00987 whole entry, the tested form may be a part): as the sequence (Q00987 whole entry) above

For the molecule `CC(C)[C@@H]1NC(=O)Cn2cc(nn2)C[C@@H](C(N)=O)NC(=O)[C@@H]2C[C@@H](CN2C(=O)c2ccccc2)NC(=O)[C@H](Cc2cccc(C(F)(F)F)c2)NC(=O)[C@@H](C(C)C)CNC(=O)CNC(=O)[C@H](Cc2ccccc2)NC(=O)[C@H](Cc2c[nH]c3ccccc23)NC1=O`, the IC50 against Protein Mdm4 is 43 nM; in assay [1], 43 nM; in the assay on RS4-11, more than 50000 nM.

On to `CC(C)[C@@H]1NC(=O)Cn2cc(nn2)C[C@H](C(N)=O)NC(=O)[C@@H]2C[C@@H](CN2C(=O)c2ccccc2)NC(=O)[C@H](Cc2cccc(C(F)(F)F)c2)NC(=O)[C@@H](C(C)C)CNC(=O)CNC(=O)[C@H](Cc2ccccc2)NC(=O)[C@H](Cc2c[nH]c3ccccc23)NC1=O`, for which the IC50 at Protein Mdm4 is 9 nM; in assay [1], 9 nM; with RS4-11, more than 50000 nM; in assay [2] it was 8.9 nM.

For the molecule `CC(C)[C@@H]1NC(=O)Cn2cc(nn2)CC(C(N)=O)NC(=O)[C@@H]2C[C@@H](CN2C(=O)c2ccccc2)NC(=O)[C@H](Cc2cccc(C(F)(F)F)c2)NC(=O)[C@@H](C(C)C)CNC(=O)CNC(=O)[C@H](Cc2ccccc2)NC(=O)[C@H](Cc2c[nH]c3ccccc23)NC1=O` (stereo partly specified), the IC50 in assay [3] turned out to be 90 nM; in assay [4], 2000 nM.

As to `CC[C@H](C)[C@@H]1NC(=O)[C@H](C(C)C)NC(=O)Cn2cc(nn2)CC(C(N)=O)NC(=O)[C@@H](Cc2ccsc2)NC(=O)[C@H](Cc2ccc(Cl)cc2)NC(=O)C[C@@H](C(=O)O)NC(=O)[C@H](CCSC)NC(=O)[C@H](CC(=O)O)NC1=O` (stereo partly specified), the IC50 in assay [3] came to 8100 nM; in assay [4] it was 16900 nM.

Broadly, the IC50 is the concentration at which inhibition is half-maximal.
